Measured values: patent US10689365B2, “Substituted 2-alkylimidazolylcarboxamides as pesticides” (Bayer CropScience Aktiengesellschaft, priority 2016, dated 2020)
Where two headings read alike, the source gives them in different places.

Assays:
Myzus persicae [1] = assay: Myzus persicae - oral test (MYZUPE O); format: in vivo; conditions: read-out: % efficacy
Method: Myzus persicae—Oral Test (MYZUPE O)
(§1) Solvent: 100 parts by weight of acetone
(§2) To produce a suitable preparation of active compound, 1 part by weight of active compound is dissolved using the specified parts by weight of solvent and made up with water until the desired concentration is attained.
(§3) 50 μl of the active compound preparation are transferred into microtitre plates and made up to a final volume of 200 μl with 150 μl of IPL41 insect medium (33%+15% sugar). Subsequently, the plates are sealed with parafilm, which a mixed population of green peach aphids (Myzus persicae) within a second microtitre plate is able to puncture and imbibe the solution through it.
(§4) After the desired period of time, the efficacy in % is determined. 100% means that all the aphids have been killed; 0% means that no aphids have been killed.

Myzus persicae [2] = assay: Myzus persicae - spray test (Chinese cabbage leaf discs); format: in vivo; conditions: application rate 500 g/ha, after 5-6 days; for pest or weed control at 500 g/ha: Myzus persicae, foliar, read-out: efficacy
Method: Myzus persicae—Spray Test
Solvent: 78 parts by weight of acetone • • 1.5 parts by weight of dimethylformamide
(§5) Emulsifier: alkylaryl polyglycol ether
(§6) To produce a suitable active compound preparation, 1 part by weight of active compound is dissolved using the stated parts by weight of solvent and made up with water containing an emulsifier concentration of 1000 ppm until the desired concentration is attained. To produce further test concentrations, the formulation is diluted with emulsifier-containing water.
Discs of Chinese cabbage leaves (Brassica pekinensis) infested by all stages of the green peach aphid (Myzus persicae) are sprayed with an active ingredient formulation of the desired concentration.
After 5-6 days, the efficacy in % is determined. 100% means that all the aphids have been killed; 0% means that no aphids have been killed.

[3] = log P by HPLC on reversed-phase (C18) columns, OECD Guideline 117; format: physicochemical; conditions: for chromatographic logP: reversed-phase (C18) HPLC column
Method: The log P values were determined in accordance with OECD Guideline 117 (EC Directive 92/69/EEC) by HPLC (high-performance liquid chromatography) using reversed-phase (RP) columns (C18), by the following methods:
[a] The LC-MS determination in the acidic range was carried out at pH 2.7 with 0.1% aqueous formic acid and acetonitrile (contains 0.1% formic acid) as mobile phases; linear gradient from 10% acetonitrile to 95% acetonitrile.
[b] LC-MS determination in the neutral range was carried out at pH 7.8 with 0.001 molar aqueous ammonium hydrogencarbonate solution and acetonitrile as mobile phases; linear gradient from 10% acetonitrile to 95% acetonitrile.

Myzus persicae [4] = assay: Myzus persicae - oral test; format: in vivo; conditions: application rate 20 ppm, after 5 days; for pest or weed control at 20 ppm: Myzus persicae, po, 120 h, read-out: efficacy
Method: as §1, §2, §3
After 5 days, the efficacy in % is determined. 100% means that all the aphids have been killed; 0% means that no aphids have been killed.

Myzus persicae [5] = assay: Myzus persicae - drench test (MYZUPE D), Savoy cabbage in soil; format: in vivo; conditions: 240 h, 10 dat, read-out: % efficacy
Method: Myzus persicae—Drench Test (MYZUPE D)
To produce a suitable active compound preparation, 1 part by weight of active compound is mixed with the specified amounts of solvent and emulsifier, and the concentrate is diluted with water to the desired concentration, it being necessary to include the volume of soil which is drenched in the calculation. It should be ensured that a concentration of 40 ppm of emulsifier in the soil is not exceeded. To produce further test concentrations, water is used for dilution.
Savoy cabbage (Brassica oleracea) in pots with soil and infested by all stages of the green peach aphid (Myzus persicae) is watered with an active compound preparation of the desired concentration.
as §4

Myzus persicae [6] = assay: Myzus persicae - spray test (MYZUPE), Chinese cabbage leaf discs; format: in vivo; conditions: foliar; for percent efficacy (aphid mortality) at 20 g/ha / Emax at 20 g/ha: 20 g of ai/ha; for percent efficacy (aphid mortality) at 100 g/ha: 100 g of ai/ha; for Emax at 20 g/ha: read-out: % efficacy
Method: Myzus persicae—Spray Test (MYZUPE)
Solvent: 78.0 parts by weight of acetone • • 1.5 parts by weight of dimethylformamide
as §5, §6
Discs of Chinese cabbage leaves (Brassica pekinensis) infested by all stages of the green peach aphid (Myzus persicae) are sprayed with an active compound preparation of the desired concentration.
as §4

Aphis gossypii = Aphis gossypii - spray test (APHIGO S), cotton plants; format: in vivo; conditions: 144 h, 6 dat, read-out: % efficacy
Method: Aphis gossypii—Spray Test (APHIGO S)
(§7) Solvent: 14 parts by weight of dimethylformamide
as §5
as §6, with “water. If the addition of ammonium salts or/and penetrants is required, these are each added in a concentration of 1000 ppm to the formulation solution.” for “water.”
Cotton plants (Gossypium hirsutum) heavily infested by the cotton aphid (Aphis gossypii) are sprayed with an active ingredient formulation of the desired concentration.
After the desired time, the kill in % is determined. 100% means that all the aphids have been killed; 0% means that no aphids have been killed.

Myzus persicae [7] = assay: Myzus persicae - spray test (MYZUPE S), bell pepper plants; format: in vivo; conditions: 144 h, 6 dat, read-out: % efficacy
Method: Myzus persicae—Spray Test (MYZUPE S)
as §7, §5
as §6, with “with” for “using”, “specified” for “stated”, “water. If the addition of ammonium salts or/and penetrants is required, these are each added in a concentration of 1000 ppm to the formulation solution.” for “water.”
Bell pepper plants (Capsicum annuum) severely infested with the green peach aphid (Myzus persicae) are treated by spraying with the active ingredient formulation in the desired concentration.
After the desired time, the kill in % is determined. 100% means that all the animals have been killed; 0% means that no animals have been killed.

[8] = acidic range, pH 2.7, 0.1% aqueous formic acid/acetonitrile, read-out: logP[a]
[9] = neutral range, pH 7.8, aqueous ammonium hydrogencarbonate/acetonitrile, read-out: logP[n]
[10] = acidic range, pH 2.7, 0.1% aqueous formic acid/acetonitrile
[11] = neutral range, pH 7.8, aqueous ammonium hydrogencarbonate/acetonitrile

| Compound | chromatographic logP [3, 8] | chromatographic logP [3, 9] | Emax at 4 ppm (Myzus persicae [1]; 120 h, 5 dat) [%] | pest or weed control at 500 g/ha (Myzus persicae [2]) [%] | pest or weed control at 20 ppm (Myzus persicae [4]) [%] | Emax at 0.16 ppm (Myzus persicae [5]) [%] | percent efficacy (aphid mortality) at 100 g/ha (Myzus persicae [6]; 120 h, 5 dat) [%] | Emax at 0.8 ppm (Aphis gossypii) [%] | Emax at 4 ppm (Aphis gossypii) [%] | also measured |
| --- | --- | --- | --- | --- | --- | --- | --- | --- | --- | --- |
| COC(=O)CSCc1ncc(C(=O)N(C)c2cccnc2)n1C [Example I-1-37] | 0.35 | 1.04 | 100 | 100 | 100 | – | – | – | – | – |
| CN(C(=O)c1cnc(Cn2ccnn2)n1C)c1cccnc1 [Example I-1-46] | 0.05 | 0.42 | – | 100 | 100 | – | – | – | – | percent efficacy (aphid mortality) at 20 g/ha (Myzus persicae [6]; 144 h, 6 dat): 90%; percent efficacy (aphid mortality) at 100 g/ha (Myzus persicae [6]; 144 h, 6 dat): 90%; Emax at 4 ppm (Myzus persicae [1]; 144 h, 6 dat): 100% |
| CN(C(=O)c1cnc(Cn2ccc(C(F)(F)F)n2)n1C)c1cccnc1 [Example I-1-44] | 1.46 | 1.64 | 100 | 100 | 100 | 90 | – | 55 | 99 | percent efficacy (aphid mortality) at 20 g/ha (Myzus persicae [6]; 96 h, 4 dat): 90%; percent efficacy (aphid mortality) at 100 g/ha (Myzus persicae [6]; 96 h, 4 dat): 90% |
| Cc1ncc(C(=O)Nc2cccnc2)n1C [reference compound] | – | – | – | – | – | – | 70 | – | – | Emax at 20 g/ha (Myzus persicae [6]; 120 h, 5 dat): 0% |
| O=C(Nc1cccnc1)c1c[nH]cn1 [Prior art WO 2011/009804 (Ex. 13), reference compound] | – | – | – | – | – | – | – | – | – | percent efficacy (aphid mortality) at 20 g/ha (Myzus persicae [6]; 144 h, 6 dat): 0%; percent efficacy (aphid mortality) at 100 g/ha (Myzus persicae [6]; 144 h, 6 dat): 0%; Emax at 4 ppm (Myzus persicae [1]; 144 h, 6 dat): 0% |
| Cc1ncc(C(=O)N(C)c2cccnc2)n1C [reference compound] | – | – | – | – | – | 30 | – | – | 40 | Emax at 0.16 ppm (Myzus persicae [7]): 0%; percent kill (mortality) of aphids at a fixed dose at 0.8 ppm (Aphis gossypii): 0% |
| CN(C(=O)c1cnc(Cn2cccn2)n1C)c1cccnc1 [Example I-1-43, N,1-Dimethyl-2-(1H-pyrazol-1-ylmethyl)-N-(pyridin-3-yl)-1H-imidazole-5-carboxamide] | 0.35 | 0.81 | 100 | 100 | 100 | 70 | – | 30 | 98 | percent efficacy (aphid mortality) at 20 g/ha (Myzus persicae [6]; 96 h, 4 dat): 90%; percent efficacy (aphid mortality) at 100 g/ha (Myzus persicae [6]; 96 h, 4 dat): 90% |
| CCc1ncc(C(=O)N(C)c2cccnc2)n1C [reference compound] | – | – | – | – | – | 0 | – | – | 45 | Emax at 0.16 ppm (Myzus persicae [7]): 0%; percent kill (mortality) of aphids at a fixed dose at 0.8 ppm (Aphis gossypii): 0% |
| CN(C(=O)c1cnc(COc2ccc(Cl)cc2)n1C)c1cccnc1 [Example I-1-62] | – | – | – | – | – | – | – | – | – | efficacy (Myzus persicae [2]): 100%; logP[a] [3, 10]: 1.63; logP[n] [3, 11]: 2.00; efficacy (Myzus persicae [4]): 100% |
| CN(C(=O)c1cnc(Cn2cc(C(F)(F)F)cn2)n1C)c1cccnc1 [Example I-1-45] | 1.34 | 1.59 | 100 | 90 | 100 | 80 | – | – | – | percent efficacy (aphid mortality) at 100 g/ha (Myzus persicae [6]; 96 h, 4 dat): 100%; percent kill (mortality) of aphids at a fixed dose at 0.8 ppm (Aphis gossypii): 98%; percent kill (mortality) of aphids at a fixed dose at 4 ppm (Aphis gossypii): 100% |
| CC(C)CC(O)c1ncc(C(=O)N(C)c2cccnc2)n1C (racemic) [Example I-1-60] | – | – | – | – | – | – | – | – | – | efficacy (Myzus persicae [2]): 90%; logP[a] [3, 10]: 0.60; logP[n] [3, 11]: 1.26; efficacy (Myzus persicae [4]): 100% |
| Cc1nc(C(=O)Nc2cccnc2)c[nH]1 [Prior art WO2011/009804 (Ex. 14), reference compound] | – | – | 0 | – | – | – | 0 | – | – | percent efficacy (aphid mortality) at 20 g/ha (Myzus persicae [6]; 120 h, 5 dat): 0% |

Second part, led by results:

| chromatographic logP [3, 8] | chromatographic logP [3, 9] | Compound | Emax at 4 ppm (Myzus persicae [1]; 120 h, 5 dat) [%] | pest or weed control at 500 g/ha (Myzus persicae [2]) [%] | pest or weed control at 20 ppm (Myzus persicae [4]) [%] | Emax at 0.16 ppm (Myzus persicae [5]) [%] | percent efficacy (aphid mortality) at 100 g/ha (Myzus persicae [6]; 120 h, 5 dat) [%] | Emax at 0.8 ppm (Aphis gossypii) [%] | Emax at 4 ppm (Aphis gossypii) [%] | also measured |
| --- | --- | --- | --- | --- | --- | --- | --- | --- | --- | --- |
| 0.46 | 1.18 | CCSCc1ncc(C(=O)N(C)c2cccnc2)n1C [Example I-1-27] | 100 | 90 | 100 | 98 | 90 | 98 | 100 | percent efficacy (aphid mortality) at 20 g/ha (Myzus persicae [6]; 120 h, 5 dat): 90% |
| 0.97 | 1.67 | CN(C(=O)c1cnc(CSC(C)(C)C)n1C)c1cccnc1 [Example I-1-33] | 100 | 100 | 100 | 90 | 90 | – | 75 | Emax at 20 g/ha (Myzus persicae [6]; 120 h, 5 dat): 100% |
| 1.57 | 2.07 | CN(C(=O)c1cnc(CSc2ccc(Cl)cc2)n1C)c1cccnc1 [Example I-1-41] | 100 | 90 | 100 | – | 90 | 35 | 100 | Emax at 20 g/ha (Myzus persicae [6]; 120 h, 5 dat): 70% |
| 1.14 | 1.73 | CN(C(=O)c1cnc(CSc2ccccc2)n1C)c1cccnc1 [Example I-1-38] | 100 | 90 | 90 | – | – | 60 | – | percent kill (mortality) of aphids at a fixed dose at 4 ppm (Aphis gossypii): 100% |
| 1.41 | 1.99 | CN(C(=O)c1cnc(CSc2ccccc2Cl)n1C)c1cccnc1 [Example I-1-39] | 100 | 90 | 100 | – | 90 | 30 | 95 | percent efficacy (aphid mortality) at 20 g/ha (Myzus persicae [6]; 120 h, 5 dat): 90% |
| 1.55 | 2.11 | CN(C(=O)c1cnc(CSc2cccc(Cl)c2)n1C)c1cccnc1 [Example I-1-40] | 100 | 90 | 100 | – | 90 | – | – | – |
| 0.27 | 1.01 | CN(C(=O)c1cnc(CSc2ncccn2)n1C)c1cccnc1 [Example I-1-42] | 90 | 100 | 100 | – | 70 | – | – | – |
